Test results published in patent US10760110B2, “Antibiotic testing and screening system” (priority 2017, dated 2020).
Values after ≈ are worked out from the molar mass of the structure shown. Like-named read-outs stand apart in the source and are kept apart here.

Assays:
Settings in all cases: Klebsiella pneumoniae
[1] = test system: K. pneumoniae NVT1001 and its ΔompK35/36 and/or ΔramR mutants; test: Etest MIC, OmpK35/36 loss and AcrAB-TolC overexpression (ΔramR) strains (Table 6); assay type: cell-based, Klebsiella pneumoniae
In short: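 Ceftazidime and cefotaxime were tested by CLSI broth microdilution on the blaOXA-48 pACYC177 transformant of NVT1001, using CLSI 2017 breakpoints. Parent, porin-deleted (ΔompK35/36) and ΔramR strains were tested by Etest, with values between two-fold dilutions rounded up.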

[2] = test system: K. pneumoniae NVT1001 strains with carbapenemase plasmids; test: Etest MIC of β-lactams, OmpK35/36 loss, ΔramR and/or carbapenemase (Table 9); assay type: cell-based, Klebsiella pneumoniae
Method: DNA fragments of the resistance genes along with their flanking regions were amplified from clinical plasmids via PCR with specific primer pairs. The resulting PCR fragments were digested and then cloned into the plasmid pACYC177 or pACYC184. The resulting plasmids were then transformed into K. pneumoniae strain NVT1001 via electroporation. The recombinant bacteria were plated onto LB agar plates containing kanamycin (50 mg/L) or chloramphenicol (50 mg/L), and the presence of the cloned gene was confirmed via PCR and DNA sequencing.
The MICs of antibiotics were determined using the Etest (Biodisk AB, Sweden) according to the manufacturer's instructions. The MICs from the Etest, which fall between standard two-fold dilutions, were rounded up to the next highest two-fold value. The MICs of ceftazidime and cefotaxime against K. pneumoniae NVT1001 harbouring the pACYC177 plasmid with blaOXA-48 were further determined using a broth microdilution test according to the recommendations of the CLSI,^25 and the results were interpreted according to the breakpoints established by the CLSI in 2017.^25 Meanwhile, due to the lack of CLSI breakpoints in 2016 and 2017, the results for cephalothin were interpreted according to the breakpoints established by the CLSI in 2015,^26 and the results for moxifloxacin were interpreted according to the breakpoints established by the EUCAST in 2017.^27

[3] = test system: K. pneumoniae NVT1001 ΔramRΔompK35/36 mutant and its revertants; test: Etest MIC, ΔramRΔompK35/36 mutant and its revertants (Table 7); assay type: cell-based

Compound: CC(=O)OCC1=C(C(=O)O)N2C(=O)[C@@H](NC(=O)Cc3cccs3)[C@H]2SC1 [Cephalothin]
- MIC ([1]; WT, NVT1001, read-out: MIC): 8 µg/mL (≈ 20.2 µM)
- MIC ([1]; Δ35, ΔompK35 mutant): 8 µg/mL (≈ 20.2 µM)
- MIC ([1]; Δ35/36, ΔompK35/36 mutant): 256 µg/mL (≈ 646 µM)
- MIC ([1]; Δ36, ΔompK36 mutant): 16 µg/mL (≈ 40.4 µM)
- MIC ([1]; ΔramR mutant): 64 µg/mL (≈ 161 µM)
- MIC ([1]; ΔramRΔ35, ΔramRΔompK35 mutant): 64 µg/mL (≈ 161 µM)
- MIC ([1]; ΔramRΔ35/36, ΔramRΔompK35/36 mutant): > 256 µg/mL
- MIC ([1]; ΔramRΔ36, ΔramRΔompK36 mutant): > 256 µg/mL
- MIC ([2]; IMP-8 on pACYC177, WT (NVT1001), read-out: MIC): > 256 µg/mL
- MIC ([2]; IMP-8 on pACYC177, Δ35 (ΔompK35 mutant)): > 256 µg/mL
- MIC ([2]; IMP-8 on pACYC177, Δ35/36 (ΔompK35/36 mutant)): > 256 µg/mL
- MIC ([2]; IMP-8 on pACYC177, Δ36 (ΔompK36 mutant)): > 256 µg/mL
- MIC ([2]; IMP-8 on pACYC177, ΔramR mutant): > 256 µg/mL
- MIC ([2]; IMP-8 on pACYC177, ΔramRΔ35 (ΔramRΔompK35 mutant)): > 256 µg/mL
- MIC ([2]; IMP-8 on pACYC177, ΔramRΔ35/36 (ΔramRΔompK35/36 mutant)): > 256 µg/mL
- MIC ([2]; IMP-8 on pACYC177, ΔramRΔ36 (ΔramRΔompK36 mutant)): > 256 µg/mL
- MIC ([2]; KPC-2 on pACYC177, WT (NVT1001), read-out: MIC): > 256 µg/mL
- MIC ([2]; KPC-2 on pACYC177, Δ35 (ΔompK35 mutant)): > 256 µg/mL
- MIC ([2]; KPC-2 on pACYC177, Δ35/36 (ΔompK35/36 mutant)): > 256 µg/mL
- MIC ([2]; KPC-2 on pACYC177, Δ36 (ΔompK36 mutant)): > 256 µg/mL
- MIC ([2]; KPC-2 on pACYC177, ΔramR mutant): > 256 µg/mL
- MIC ([2]; KPC-2 on pACYC177, ΔramRΔ35 (ΔramRΔompK35 mutant)): > 256 µg/mL
- MIC ([2]; KPC-2 on pACYC177, ΔramRΔ35/36 (ΔramRΔompK35/36 mutant)): > 256 µg/mL
- MIC ([2]; KPC-2 on pACYC177, ΔramRΔ36 (ΔramRΔompK36 mutant)): > 256 µg/mL
- MIC ([2]; KPC-3 on pACYC177, WT (NVT1001), read-out: MIC): > 256 µg/mL
- MIC ([2]; KPC-3 on pACYC177, Δ35 (ΔompK35 mutant)): > 256 µg/mL
- MIC ([2]; KPC-3 on pACYC177, Δ35/36 (ΔompK35/36 mutant)): > 256 µg/mL
- MIC ([2]; KPC-3 on pACYC177, Δ36 (ΔompK36 mutant)): > 256 µg/mL
- MIC ([2]; KPC-3 on pACYC177, ΔramR mutant): > 256 µg/mL
- MIC ([2]; KPC-3 on pACYC177, ΔramRΔ35 (ΔramRΔompK35 mutant)): > 256 µg/mL
- MIC ([2]; KPC-3 on pACYC177, ΔramRΔ35/36 (ΔramRΔompK35/36 mutant)): > 256 µg/mL
- MIC ([2]; KPC-3 on pACYC177, ΔramRΔ36 (ΔramRΔompK36 mutant)): > 256 µg/mL
- MIC ([2]; NDM-1 on pACYC177, WT (NVT1001), read-out: MIC): > 256 µg/mL
- MIC ([2]; NDM-1 on pACYC177, Δ35 (ΔompK35 mutant)): > 256 µg/mL
- MIC ([2]; NDM-1 on pACYC177, Δ35/36 (ΔompK35/36 mutant)): > 256 µg/mL
- MIC ([2]; NDM-1 on pACYC177, Δ36 (ΔompK36 mutant)): > 256 µg/mL
- MIC ([2]; NDM-1 on pACYC177, ΔramR mutant): > 256 µg/mL
- MIC ([2]; NDM-1 on pACYC177, ΔramRΔ35 (ΔramRΔompK35 mutant)): > 256 µg/mL
- MIC ([2]; NDM-1 on pACYC177, ΔramRΔ35/36 (ΔramRΔompK35/36 mutant)): > 256 µg/mL
- MIC ([2]; NDM-1 on pACYC177, ΔramRΔ36 (ΔramRΔompK36 mutant)): > 256 µg/mL
- MIC ([2]; OXA-48 on pACYC177, WT (NVT1001), read-out: MIC): 256 µg/mL
- MIC ([2]; OXA-48 on pACYC177, Δ35 (ΔompK35 mutant)): 256 µg/mL
- MIC ([2]; OXA-48 on pACYC177, Δ35/36 (ΔompK35/36 mutant)): > 256 µg/mL
- MIC ([2]; OXA-48 on pACYC177, Δ36 (ΔompK36 mutant)): > 256 µg/mL
- MIC ([2]; OXA-48 on pACYC177, ΔramR mutant): > 256 µg/mL
- MIC ([2]; OXA-48 on pACYC177, ΔramRΔ35 (ΔramRΔompK35 mutant)): > 256 µg/mL
- MIC ([2]; OXA-48 on pACYC177, ΔramRΔ35/36 (ΔramRΔompK35/36 mutant)): > 256 µg/mL
- MIC ([2]; OXA-48 on pACYC177, ΔramRΔ36 (ΔramRΔompK36 mutant)): > 256 µg/mL
- MIC ([2]; VIM-1 on pACYC177, WT (NVT1001), read-out: MIC): > 256 µg/mL
- MIC ([2]; VIM-1 on pACYC177, Δ35 (ΔompK35 mutant)): > 256 µg/mL
- MIC ([2]; VIM-1 on pACYC177, Δ35/36 (ΔompK35/36 mutant)): > 256 µg/mL
- MIC ([2]; VIM-1 on pACYC177, Δ36 (ΔompK36 mutant)): > 256 µg/mL
- MIC ([2]; VIM-1 on pACYC177, ΔramR mutant): > 256 µg/mL
- MIC ([2]; VIM-1 on pACYC177, ΔramRΔ35 (ΔramRΔompK35 mutant)): > 256 µg/mL
- MIC ([2]; VIM-1 on pACYC177, ΔramRΔ35/36 (ΔramRΔompK35/36 mutant)): > 256 µg/mL
- MIC ([2]; VIM-1 on pACYC177, ΔramRΔ36 (ΔramRΔompK36 mutant)): > 256 µg/mL
- MIC ([2]; no supplemental plasmid, WT (NVT1001), read-out: MIC): 8 µg/mL
- MIC ([2]; no supplemental plasmid, Δ35 (ΔompK35 mutant)): 8 µg/mL
- MIC ([2]; no supplemental plasmid, Δ35/36 (ΔompK35/36 mutant)): 256 µg/mL
- MIC ([2]; no supplemental plasmid, Δ36 (ΔompK36 mutant)): 16 µg/mL
- MIC ([2]; no supplemental plasmid, ΔramR mutant): 64 µg/mL
- MIC ([2]; no supplemental plasmid, ΔramRΔ35 (ΔramRΔompK35 mutant)): 64 µg/mL
- MIC ([2]; no supplemental plasmid, ΔramRΔ35/36 (ΔramRΔompK35/36 mutant)): > 256 µg/mL
- MIC ([2]; no supplemental plasmid, ΔramRΔ36 (ΔramRΔompK36 mutant)): > 256 µg/mL
- MIC ([3]; ΔramRΔompK35/36::ompK35/36 revertant): 64 µg/mL
- MIC ([3]; ΔramRΔompK35/36::ompK35 revertant): > 256 µg/mL
- MIC ([3]; ΔramRΔompK35/36::ompK36 revertant): 128 µg/mL
- MIC ([3]; ΔramRΔompK35/36::ramR revertant): > 256 µg/mL
- MIC ([3]; ΔramRΔompK35/36::ramR::ompK35/36 revertant): 8 µg/mL
- MIC ([3]; ΔramRΔompK35/36::ramR::ompK35 revertant): 32 µg/mL
- MIC ([3]; ΔramRΔompK35/36::ramR::ompK36 revertant): 8 µg/mL
- MIC ([3]; ΔramRΔompK35/36 mutant): > 256 µg/mL
